The subject of data set [1] is HIV-1LAI virus. Kind of data set: Cell fusion assay (HIV-1 induced syncytia formation). The format is cell-based. The source says:
The results of several such experiments are presented herein.

Data set [2] concerns the target viral gp41 of HIV-1 (on virions and HIV-1 infected cells) (HIV-1) (UniProt P03377). The data set can be described thus: cell-based or functional assay.
The test system of the next data set is RSV. The data set can be described thus: Anti-RSV antiviral activity assay (syncytial formation, Hep-2 cells). As to conditions: purified peptides. The format is cell-based, respiratory syncytial virus. How it is done:
The assay utilized herein tested the ability of the peptides to disrupt the ability of HEp2 cells acutely infected with RSV (i.e., cells which are infected with a multiplicity of infection of greater than 2) to fuse and cause syncytial formation on a monolayer of uninfected an uninfected line of Hep-2 cells. The lower the observed level of fusion, the greater the antiviral activity of the peptide was determined to be. […]
After incubation, cells in control wells were checked for fusion centers, media was removed from the wells, followed by addition, to each well, of either Crystal Violet stain or XTT. […] The number of syncytia per well were then counted, using a dissecting microscope.
With respect to XTT (2,3-bis[2-Methoxy-4-nitro-5-sulfophenyl]-2H-tetrazolium-5-carboxyanilide inner salt), 50 μl XTT (1 mg/ml in RPMI buffered with 100 mM HEPES, pH 7.2-7.4, plus 5% DMSO) were added to each well. The OD450/690 was measured (after blanking against growth medium without cells or reagents, and against reagents) according to standard procedures. […]

The subject of the next data set is CEM cells. The data set can be described thus: Cell proliferation and toxicity assay. The format is cell-based. The conditions noted are these: 3 days, highest concentration tested 40 μg/ml. How it is done: Cell proliferation and toxicity assay: Approximately 3.8×10^5 CEM cells for each peptide concentration were incubated for 3 days at 37° C. in T25 flasks. Peptides tested were DP178 (SEQ ID:1) and DP-116 (SEQ ID:9), as described in FIG. 1. Peptides were synthesized as described, above, in Section 6.1. The concentrations of each peptide used were 0, 2.5, 10, and 40 μg/ml. Cell counts were taken at incubation times of 0, 24, 48, and 72 hours.

In data set [3] the test system is HIV-1LAI virus. The conditions noted are these: FIG. 1 legend. How it is done:
Synthetic peptides were incubated at 37° C. with either 247 TCID50 (for experiment depicted in FIG. 2), or 62 TCID50 (for experiment depicted in FIG. 3) units of HIV-1LAI virus or 25 TCID50 units of HIV-2NIHZ and CEM CD4^+ cells at peptide concentrations of 0, 0.04, 0.4, 4.0, and 40 μg/ml for 7 days. The resulting reverse transcriptase (RT) activity in counts per minute was determined using the assay described, below, in Section 6.1.5. See Reed, L. J. et al., 1938, Am. J. Hyg. 27: 493-497 for an explanation of TCID50 calculations.
The micro-reverse transcriptase (RT) assay was adapted from Goff et al. (Goff, S. et al., 1981, J. Virol. 38:239-248) and Willey et al. (Willey, R. et al., 1988, J. Virol. 62:139-147). Supernatants from virus/cell cultures are adjusted to 1% Triton-X100. A 10 μl sample of supernatant was added to 50 μl of RT cocktail in a 96-well U-bottom microtitre plate and the samples incubated at 37° C. for 90 min. The RT cocktail contained 75 mM KCl, 2 mM dithiothreitol, 5 mM MgCl2, 5 μg/ml poly A (Pharmacia, cat. No. 27-4110-01), 0.25 units/ml oligo dT (Pharmacia, cat. No. 27-7858-01), 0.05% NP40, 50 mM Tris-HCl, pH 7.8, 0.5 μM non-radioactive dTTP, and 10 μCi/ml ^32P-dTTP (Amersham, cat. No. PB.10167).
After the incubation period, 40 μl of reaction mixture was applied to a Schleicher and Schuell (S+S) NA45 membrane (or DE81 paper) saturated in 2×SSC buffer (0.3M NaCl and 0.003M sodium citrate) held in a S+S Minifold over one sheet of GB003 (S+S) filter paper, with partial vacuum applied. Each well of the minifold was washed four times with 200 μl 2×SSC, under full vacuum. The membrane was removed from the minifold and washed 2 more times in a pyrex dish with an excess of 2×SSC. Finally, the membrane was drained on absorbent paper, placed on Whatman #3 paper, covered with Saran wrap, and exposed to film overnight at −70° C.
DP178 (SEQ ID:1) was next tested for its ability to block CD-4^+ CEM cell infection by cell free HIV-1 virus. […]

Data set [4] deals with T1, DP107-like domain of the RSV F1 protein (Human respiratory syncytial virus A, UniProt P03420).
T1 construct: made in house
T1 sequence (P03420 142-302): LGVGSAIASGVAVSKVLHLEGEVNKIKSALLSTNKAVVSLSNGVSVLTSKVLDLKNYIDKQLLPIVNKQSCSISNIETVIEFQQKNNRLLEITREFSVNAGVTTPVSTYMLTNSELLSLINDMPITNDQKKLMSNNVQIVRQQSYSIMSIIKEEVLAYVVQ
The format is binding. How it is done: After incubation and washing, unbound Fab-d is removed from the plates and bound Fab-d is quantitated. A no-inhibitor control should also be conducted.
Such an assay takes advantages of accepted radioligand and receptor binding principles.
Specifically, the DNA sequence corresponding amino acid residues 142-302 of the RSV F1 protein was amplified by PCR and cloned into the Xmn I site of the expression vector pMal-p2 (New England Biolab) to give MF5.1. These amino acid residues correspond to the extracellular domain of the RSV F1 protein including its DP107 region but excluding the DP178 region.
Cell fusion assays were performed with each of the peptides as described in Section 17 above. The binding affinity of each peptide was also measured in a competitive binding assay described in Section 5.6.1 above, wherein the concentration of each peptide necessary to bind to the M5.1 fusion protein (i.e., the B50 value), and thereby disrupt binding of biotin labeled T112 (T888) to the fusion protein, was measured.

Entries after “also recorded” stand apart in the source; their conditions may differ. Some results are limits rather than exact numbers.

On to “DP-180: control peptide incorporating the amino acid residues of DP178 in a scrambled sequence (NNLLRAIEAQQHLLQLTVW; Core polypeptide) [reference compound]”, for which, in the data set on HIV-1LAI virus [1] (at 40 μg/ml), the anti-fusogenic activity result was “no evidence of anti-fusogenic activity”.

Consider “M41 (maltose binding fusion protein of the gp41 ectodomain) (from UniProt P0AEX9 27-392; P03377 540-686)”, for which, in data set [2], the Cell fusion (IC90) was greater than 50000 nM and the HIV infectivity (IC90) was greater than 16000 nM.

As to `CC[C@H](C)[C@H](NC(=O)[C@H](Cc1ccccc1)NC(=O)[C@H](C)NC(=O)[C@H](CC(C)C)NC(=O)[C@H](CO)NC(=O)[C@H](CCC(N)=O)NC(=O)[C@H](CC(N)=O)NC(=O)[C@@H](NC(=O)[C@H](CCCCN)NC(=O)[C@H](CCC(=O)O)NC(=O)[C@H](CC(N)=O)NC(=O)[C@@H](NC(=O)[C@H](CCC(N)=O)NC(=O)[C@H](CO)NC(=O)[C@@H](NC(=O)[C@H](CO)NC(=O)[C@H](C)NC(=O)[C@H](CC(=O)O)NC(=O)[C@H](Cc1ccccc1)NC(=O)[C@H](CCC(=O)O)NC(=O)[C@H](CC(=O)O)NC(=O)[C@H](CO)NC(=O)[C@@H]1CCCN1C(=O)[C@H](Cc1ccccc1)NC(=O)[C@@H](NC(C)=O)C(C)C)[C@@H](C)CC)C(C)C)[C@@H](C)CC)C(=O)N[C@@H](CCCNC(=N)N)C(=O)N[C@@H](CCCCN)C(=O)N[C@@H](CO)C(=O)N[C@@H](CC(=O)O)C(=O)N[C@@H](CCC(=O)O)C(=O)N[C@@H](CC(C)C)C(=O)N[C@@H](CC(C)C)C(=O)N[C@@H](Cc1c[nH]cn1)C(=O)N[C@@H](CC(N)=O)C(=O)N[C@H](C(N)=O)C(C)C` [T112], the “anti-RSV antiviral activity” value in the data set on RSV is recorded as “substantial antiviral activity”.

As to M41-P (from UniProt P03377 540-686), in data set [2], the Cell fusion (IC90) was 83 nM and the HIV infectivity (IC90) came to 66 nM.

With “H-YTNTIYTLLEESQNQQEKNEQELLELDKWASLWNWF-OH [DP-185]”, the “block of HIV-1-mediated syncytia formation” value in the data set on HIV-1LAI virus [1] is “block HIV-1-mediated syncytia formation”. Moreover, the “inhibitory activity on HIV-1-induced syncytia formation, lowest concentration tested” value in the data set on HIV-1LAI virus [1] (FIG. 4) was no more than 312.5 ng/mL.

Turning to enfuvirtide, the “cytotoxic effects on cells in culture” value in the data set on CEM cells is reported as “non-cytotoxic; also recorded: no cytotoxic effects”.

With “Ac-LQARILAVERYLKDQQQ-NH2 [DP-116, reference compound]”, the “inhibition of HIV-1 cell free virus infection” value in the data set with HIV-1LAI virus [3] was “negative for inhibition of HIV-1 infection”.

In data set [2], M41-PΔ178 (from UniProt P03377 540-642) had a Cell fusion (IC90) greater than 50000 nM and an HIV infectivity (IC90) greater than 8000 nM.

On to “Ac-VYPSDEFDASISQVNEKINQALAYIRKADELLHNV-NH2 [T786]”, for which the “binding affinity relative to T112” value in data set [4] is given as “approximately ten-fold less”. Moreover, the Kd in data set [4] (B50, competition with biotin labeled T112 (T888), read-out: binding affinity) worked out at 19 nM.
